Consider 2 compounds from patent US9950026B2, “Methods for reducing oxidative damage” (Cornell Research Foundation, Inc., priority 2004, dated 2018).

Where a SMILES comes first, the peptide text is derived from it. [ ]: non-standard residue; d: D form. Dmt = Cc1cc(O)cc(C)c1C[C@H](N)C(=O)O

One series concerns Diabetic DBA/2 mice. The experiment in a line: Marginal islet cell mass transplantation model. In kind it is in vivo. The protocol: FIG. 35A-35C. Reversal of diabetes following transplantation of a marginal mass of syngeneic islets. Diabetic DBA/2 mice received 200 syngeneic islet cells under the right kidney capsule. Reversal of diabetes was defined as random nonfasting blood glucose levels below 200 mg/dl on 3-consecutive days. (A) Blood glucose levels of each individual control mouse following transplantation of 200 syngeneic islets. (B) Blood glucose levels of each individual SS-31 treated mouse following transplantation of 200 syngeneic islets. (C) Reversal of diabetes following transplantation of a marginal islet cell mass in SS-31 treatment vs. control. Number of normoglycemic mice by day 1, 3, 5, 10 and 14 post transplantation and two-tailed P-valued calculated using chi-squared bivariate analysis are shown.
In a marginal islet cell mass transplantation model, 0 of 8 recipients of islets isolated from pancreas harvested from the control mice had successful reversal of hyperglycemia (defined as three consecutive blood glucose levels<200 mg/dl), whereas sustained normoglycemia occurred in 5 of ten recipients of islets isolated from pancreas from the SS-31 treated donor mice (FIG. 35).

In a further series the test system is mice treated with MPTP. Kind of series: MPTP animal model of Parkinson's Disease. In kind it is in vivo. Conditions: MPTP 3 x 10 mg/kg, sacrificed one week later. The protocol:
MPTP is a neurotoxin that selectively destroys striatal dopamine neurons and can be used as an animal model of Parkinson's Disease. MPP^+, a metabolite of MPTP, targets mitochondria, inhibits complex I of the electron transport chain and increases ROS production. MPP^+ is used in cell culture studied because cells are unable to metabolize MPTP to the active metabolite. MPTP is used for animal studies.
Three doses of MPTP (10 mg/kg) was given to mice (n=12) 2 h apart. SS-31 was administered 30 min before each MPTP injection, and at 1 h and 12 h after the last MPTP injection. Animals were sacrificed one week later and striatal brain regions were immunostained for tyrosine hydroxylase activity.
Three doses of MPTP (10 mg/kg) was given to mice (n=12) 2 h apart. SS-31 was administered 30 min before each MPTP injection, and at 1 h and 12 h after the last MPTP injection.
Animals were sacrificed one week later and dopamine, DOPAC and HVA levels were quantified by high pressure liquid chromatography.

The subject of a further series is SH-SY5Y cells. The experiment in a line: Cell viability, MTS assay, cells treated with tBHP. In kind it is cell-based, human. The settings on record: t-BHP 0.05-0.1 mM, 24 h. The protocol:
Neuronal N2A and SH-SY5Y cells were plated in 96-well plate at a density of 1×10^4/well and allowed to grow for 2 days before treatment with t-butyl hydroperoxide (tBHP) (0.05-0.1 mM) with or without SS-31 (10^−12 M to 10^−9 M for 24 h. Cell death was assessed by a cell proliferation assay (MTS assay, Promega, Madison, Wis.).
In general terms: Tetrazolium assays rely on reduction of a dye to a coloured formazan, in cell work by metabolically active cells.

Series [1] has as its system islet cells isolated from mouse pancreas. The experiment in a line: Islet isolation with SS-31 in isolation buffers (TMRM; annexin V/PI flow cytometry). In kind it is cell-based. The settings on record: SS-31 1 nM in all isolation buffers. On the procedure: Pancreas was harvested from mice and islet cells were prepared according standard procedures. In some studies, SS-31 (1 nM) was added to all isolation buffers used throughout the isolation procedure. Mitochondrial potential was measured using TMRM (red) and visualized by confocal microscopy.
Pancreas was harvested from mice and islet cells were prepared according standard procedures. In some studies, SS-31 (1 nM) was added to all isolation buffers used throughout the isolation procedure. Apoptosis was ascertained by flow cytometry using annexin V and necrosis by propidium iodide.

Series [2] has as its system G93A transgenic familial ALS mice. The experiment in a line: Disease onset, survival and tolerability in ALS mice. In kind it is in vivo. Conditions: 5 mg/kg SS-31 i.p. On the procedure:
FIG. 25A-25B. (A) Cumulative probability of disease on set and survival with SS-31 5 mg/kg/day treatment (n=14) […] as compared to vehicle treatment (n=14). […] (B) Mean survival (days) of G93A mice treated with vehicle or SS-31 5 mg/kg/day. (Data are mean±SD, p<0.05, Student's t-test).
Treatment with 5 mg-kg SS-31 i.p. started at 30 days of age of G93A transgenic familial amyotrophic lateral sclerosis (ALS) mice (high copy number, B6SJL-Tg(SOD1-G93A)1Gur/J) led to a significant delay of disease onset as defined by the appearance of tremor and hind limb clasping as well as deterioration in the rotarod performance, the average age of onset in the control group was 88+7 days, in the SS-31 treated group 95+6 days (p<0.05, Logrank (Mantel-Cox)). […] There was a gender effect on survival which has been observed in previous studies with this model as well in G93A mice in this background with males having a shorter life span than females (average of 5 days).

For a further series, the system named is N2A cells. The experiment in a line: Pan-caspase activity (FLICA kit) after tBHP. In kind it is cell-based, murine. On the procedure:
FIG. 21A-B. SS-31 prevented caspase activation in N2A cells treated with tBHP. […]
[…] All treatments were carried out in quadriplicates. […] Cells were gently lifted from the plates with a cell detachment solution (Accutase, Innovative Cell Technologies, Inc., San Diego, Calif.) and washed twice in PBS. Caspase activity was assayed using the FLICA kit (Immunochemistry Technologies LLC, Bloomington, Minn.) According to the manufacturer's recommendation, cells were resuspended (approx. 5×10^6 cells/ml) in PBS and labeled with pan-caspase inhibitor FAM-VAD-FMK for 1 h at 37° C. under 5% CO2 and protected from the light. Cells were then rinsed to remove the unbound reagent and fixed. Fluorescence intensity in the cells was measured by a […] (Beckman-Coulter XL, Beckman Coulter, Inc., Fullerton, Calif.) using the standard emission filters for green (FL1). For each run, 10,000 individual events were collected and stored in list-mode files for off-line analysis.

The subject of the next series is Caco-2 cells. The experiment in a line: Mitochondrial potential (TMRM) after tBHP. In kind it is cell-based, human. Conditions: tBHP 1 mM, SS-02 0.1 μM, 4 h. On the procedure:
Caco-2 cells were treated with tBHP (1 mM) in the absence or presence of SS-02 (0.1 μM) for 4 h, and then incubated with TMRM and examined under LSCM. In control cells, the mitochondria are clearly visualized as fine streaks throughout the cytoplasm.

Regarding `Cc1cc(O)cc(C)c1C[C@H](NC(=O)[C@H](N)CCCNC(=N)N)C(=O)N[C@@H](CCCCN)C(=O)N[C@@H](Cc1ccccc1)C(N)=O` [SS-31, D-Arg-2′6′-Dmt-Lys-Phe-NH2] (H-[dR][Dmt]KF-NH2; N-terminus assumed), the “recipients with sustained normoglycemia” value with Diabetic DBA/2 mice (islets from SS-31 treated donor mice) is 5 of ten. Also, in the series with Diabetic DBA/2 mice (mouse, in vivo), the “effect of discontinuation of SS-31 treatment on day 10” value is given as “did not result in return of hyperglycemia” and the “time of reversal of hyperglycemia post-transplant” value is ≤ 1 days. In the series on mice treated with MPTP, the “loss of dopamine neurons (tyrosine hydroxylase immunostaining)” value was “dose-dependently prevented loss”, the “striatal DOPAC levels” value is given as “dose-dependently increased”, the “striatal HVA levels” value is “dose-dependently increased” and the striatal dopamine levels result is “dose-dependently increased”. Besides, the “concentration achieving complete protection against t-BHP” value in the series on SH-SY5Y cells was 1 nM. The t-BHP-induced cytotoxicity result in the series on SH-SY5Y cells (concurrent treatment) is reported as “dose-dependent reduction”. In addition, in series [1], the “apoptosis (annexin V)” value is given as “reduces apoptosis”, the “mitochondrial potential (TMRM)” value is listed as “improves mitochondrial potential” and the viability entry is on record as “increases viability”. Also, in series [2], the “average age of onset” value is 95+6 days; the survival was 142+12 day; the “tolerability / side effects” value was “well tolerated and no side effects were observed”. In series [2] (vs control), the increase in survival is given as 9%. Besides, the “increase in pan-caspase activity” value with N2A cells (100 μM tBHP, 24 h) is listed as “dose-dependently prevented”. Moreover, in the series on N2A cells (t-BHP 12 h), the caspase activity result is “dose-dependently inhibited”.

Regarding 2′,6′-Dmt-Arg-Phe-Lys-NH2 [SS-02], the “mitochondrial depolarization caused by tBHP” value with Caco-2 cells is listed as “protected against mitochondrial depolarization”.
